Earlier results, collected in US10945992B1, “Dosage forms of rofecoxib and related methods” (Tremeau Pharmaceuticals, Inc., priority 2019, dated 2021).

Assays:
[1] = cited from earlier work; for incidence of gastrointestinal (GI) ulcers visualized at endoscopy compared to certain non-selective NSAIDs: FDA 2005; for risk of serious adverse cardiovascular events compared to placebo: long-term controlled clinical trial / FDA 2005
patients with HA = conditions: six weeks of Part 1; P<0.001; cited from earlier work

Compound | incidence of gastrointestinal (GI) ulcers visualized at endoscopy compared to certain non-selective NSAIDs [1] | risk of serious adverse cardiovascular events compared to placebo [1] | improvement on all endpoints versus placebo (patients with HA)
Cc1ccc(-c2cc(C(F)(F)F)nn2-c2ccc(S(N)(=O)=O)cc2)cc1 [celecoxib] | reduction | increased risk | –
Cc1onc(-c2ccccc2)c1-c1ccc(S(N)(=O)=O)cc1 [valdecoxib] | reduction | increased risk | –
Cc1ccc(-c2ncc(Cl)cc2-c2ccc(S(C)(=O)=O)cc2)cn1 [etoricoxib] | – | – | clinically and statistically significant improvement
